Measured values as given in PubChem BioAssay AID248 (DTP/NCI, 2004).
Values joined by “and” are separate entries in the source; they are usually repeats but may differ in a detail not shown here. Equal entries are not always repeated. Inconclusive results and toxic doses are left out. Cut-off read from the data, not from the text of the source: active = T/C of 150% or more; inactive = T/C below 125%.

Tested on: L1210 leukemia ip in BDF1 mice, survival T/C
Experiment: NCI In Vivo Anticancer Drug Screen. Data for tumor model L1210 Leukemia (intraperitoneal) in B6D2F1 (BDF1) mice
Settings: endpoint: mean survival time, higher = longer survival
Procedure, shortened: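 In this screen, tumor-bearing mice given compound are compared to those given vehicle, and their survival values are reported as a treated-to-control quotient.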

[1] = dose: 25.0 mg/kg/injection, schedule: Q04DX003 (ip), vehicle: saline
[2] = dose: 50.0 mg/kg/injection, schedule: Q04DX003 (ip), vehicle: saline
[3] = dose: 200.0 mg/kg/injection, schedule: Q01DX001 (ip), vehicle: saline
[4] = dose: 400.0 mg/kg/injection, schedule: Q01DX001 (ip), vehicle: saline
[5] = dose: 100.0 mg/kg/injection, schedule: Q01DX001 (ip), vehicle: saline
[6] = dose: 50.0 mg/kg/injection, schedule: Q01DX009 (ip), vehicle: saline
[7] = dose: 100.0 mg/kg/injection, schedule: Q04DX003 (ip), vehicle: acetone
[8] = dose: 200.0 mg/kg/injection, schedule: Q04DX003 (ip), vehicle: acetone
[9] = dose: 100.0 mg/kg/injection, schedule: Q01DX001 (ip), vehicle: acetone
[10] = dose: 100.0 mg/kg/injection, schedule: Q01DX009 (ip), vehicle: saline with Tween-80
[11] = dose: 100.0 mg/kg/injection, schedule: Q04DX003 (ip), vehicle: saline
[12] = dose: 200.0 mg/kg/injection, schedule: Q01DX001 (ip), vehicle: acetone
[13] = dose: 200.0 mg/kg/injection, schedule: Q04DX003 (ip), vehicle: saline
[14] = dose: 400.0 mg/kg/injection, schedule: Q01DX001 (ip), vehicle: acetone
[15] = dose: 100.0 mg/kg/injection, schedule: Q04DX003 (ip), vehicle: saline with Tween-80
[16] = dose: 25.0 mg/kg/injection, schedule: Q04DX003 (ip), vehicle: Klucel (hydroxypropylcellulose) (HPC)
[17] = dose: 50.0 mg/kg/injection, schedule: Q04DX003 (ip), vehicle: Klucel (hydroxypropylcellulose) (HPC)
[18] = dose: 100.0 mg/kg/injection, schedule: Q04DX003 (ip), vehicle: Klucel (hydroxypropylcellulose) (HPC)
[19] = dose: 200.0 mg/kg/injection, schedule: Q04DX003 (ip), vehicle: Klucel (hydroxypropylcellulose) (HPC)
[20] = dose: 400.0 mg/kg/injection, schedule: Q04DX003 (ip), vehicle: Klucel (hydroxypropylcellulose) (HPC)
[21] = dose: 100.0 mg/kg/injection, schedule: Q01DX001 (ip), vehicle: carboxymethylcellulose (CMC)
[22] = dose: 200.0 mg/kg/injection, schedule: Q01DX001 (ip), vehicle: carboxymethylcellulose (CMC)
[23] = dose: 400.0 mg/kg/injection, schedule: Q01DX001 (ip), vehicle: carboxymethylcellulose (CMC)
[24] = dose: 100.0 mg/kg/injection, schedule: Q01DX009 (ip), vehicle: Klucel (hydroxypropylcellulose) (HPC)
[25] = dose: 400.0 mg/kg/injection, schedule: Q01DX009 (ip), vehicle: Klucel (hydroxypropylcellulose) (HPC)

Measured: T/C

CC(C)C(=O)CC(=O)C(C)C.CC(C)C(=O)CC(=O)C(C)C.[Cu]
inactive: dose: 12.0 mg/kg/injection, schedule: Q01DX001 (ip), vehicle: saline 93 % of control | dose: 12.0 mg/kg/injection, schedule: Q04DX003 (ip), vehicle: saline 90 % of control | dose: 25.0 mg/kg/injection, schedule: Q01DX001 (ip), vehicle: saline 98 % of control | [1] 98 % of control | dose: 50.0 mg/kg/injection, schedule: Q01DX001 (ip), vehicle: saline 98 % of control | [2] 96 % of control

C[N+](C)(C)N1C(=O)C2C3c4ccccc4C(C2C1=O)[n+]1ccccc13 (stereo not given)
inactive: dose: 9.38 mg/kg/injection, schedule: Q01DX001 (ip), vehicle: other 86 % of control | dose: 18.75 mg/kg/injection, schedule: Q01DX001 (ip), vehicle: other 105 % of control

CCOP(=O)(NC1C2CCC(C2)C1C)OCC (stereo not given)
inactive: [3] 98 % of control | [4] 102 % of control

CCOC1CCN(CCCn2c3ccccc3c3ccc(C(C)=O)cc32)CC1
inactive: [5] 95 % of control | [3] 92 % of control

C=COC(=O)N(C)C
inactive: [6] 89 % of control | dose: 50.0 mg/kg/injection, schedule: Q04DX003 (ip), vehicle: acetone 98 % of control | [5] 96 % of control | dose: 100.0 mg/kg/injection, schedule: Q01DX009 (ip), vehicle: saline 94 % of control | [7] 96 % of control | [3] 107 % of control | dose: 200.0 mg/kg/injection, schedule: Q01DX009 (ip), vehicle: saline 95 % of control | [8] 95 % of control

NC(CCl)=NCc1cccnc1
inactive: dose: 12.5 mg/kg/injection, schedule: Q04DX002 (ip), vehicle: saline 97 % of control | dose: 25.0 mg/kg/injection, schedule: Q04DX002 (ip), vehicle: saline 108 % of control

CCCCCCCCCCCCCCCCNC(=S)NC1CCCCC1
inactive: dose: 30.0 mg/kg/injection, schedule: Q01DX015 (ip), vehicle: carboxymethylcellulose (CMC) 104 % of control | dose: 60.0 mg/kg/injection, schedule: Q01DX015 (ip), vehicle: carboxymethylcellulose (CMC) 98 % of control | [9] 100 % of control | [10] 102 % of control | [11] 101 % of control | dose: 120.0 mg/kg/injection, schedule: Q01DX015 (ip), vehicle: carboxymethylcellulose (CMC) 94 % of control | [12] 88 % of control | dose: 200.0 mg/kg/injection, schedule: Q01DX009 (ip), vehicle: saline with Tween-80 96 % of control | [13] 97 % of control | dose: 240.0 mg/kg/injection, schedule: Q01DX015 (ip), vehicle: carboxymethylcellulose (CMC) 94 % of control and 102 % of control | [14] 91 % of control | dose: 400.0 mg/kg/injection, schedule: Q04DX003 (ip), vehicle: saline 101 % of control | dose: 480.0 mg/kg/injection, schedule: Q01DX015 (ip), vehicle: carboxymethylcellulose (CMC) 101 % of control

Cc1ccc(C)c(CCN)c1
inactive: dose: 25.0 mg/kg/injection, schedule: Q01DX009 (ip), vehicle: saline with Tween-80 103 % of control | dose: 50.0 mg/kg/injection, schedule: Q01DX009 (ip), vehicle: saline with Tween-80 98 % of control | dose: 50.0 mg/kg/injection, schedule: Q04DX003 (ip), vehicle: saline with Tween-80 100 % of control | [10] 94 % of control | [15] 92 % of control

Cc1nccc2cc3c(cc12)c1ccccc1n3C
inactive: dose: 37.5 mg/kg/injection, schedule: Q04DX003 (ip), vehicle: Klucel (hydroxypropylcellulose) (HPC) 105 % of control | dose: 75.0 mg/kg/injection, schedule: Q04DX003 (ip), vehicle: Klucel (hydroxypropylcellulose) (HPC) 111 % of control | dose: 150.0 mg/kg/injection, schedule: Q04DX003 (ip), vehicle: Klucel (hydroxypropylcellulose) (HPC) 105 % of control | dose: 300.0 mg/kg/injection, schedule: Q04DX003 (ip), vehicle: Klucel (hydroxypropylcellulose) (HPC) 95 % of control

Clc1cc(C(Cl)(Cl)Cl)c(Cl)cc1C(Cl)(Cl)Cl
inactive: [16] 93 % of control | [17] 104 % of control | dose: 100.0 mg/kg/injection, schedule: Q01DX009 (ip), vehicle: saline sonified 120 % of control | [18] 97 % of control | dose: 200.0 mg/kg/injection, schedule: Q01DX009 (ip), vehicle: saline sonified 104 % of control | [19] 94 % of control | dose: 400.0 mg/kg/injection, schedule: Q01DX009 (ip), vehicle: saline sonified 94 % of control | [20] 94 % of control

Cc1cc2ccccc2c[n+]1C
inactive: dose: 12.5 mg/kg/injection, schedule: Q01DX009 (ip), vehicle: saline 95 % of control | dose: 12.5 mg/kg/injection, schedule: Q04DX003 (ip), vehicle: saline 106 % of control | dose: 25.0 mg/kg/injection, schedule: Q01DX009 (ip), vehicle: saline 101 % of control | [1] 90 % of control | [6] 108 % of control | [2] 107 % of control

O=C1CCC2C1CC1CC3C(=O)CCC3C12 (stereo not given)
inactive: dose: 50.0 mg/kg/injection, schedule: Q04DX002 (ip), vehicle: saline with Tween-80 113 % of control | dose: 100.0 mg/kg/injection, schedule: Q04DX002 (ip), vehicle: saline with Tween-80 98 % of control

C=CCOc1cc2c(ccc1=O)-c1c(cc(OC)c(OC)c1OC)CCC2NC(C)=O (stereo not given)
inactive: [21] 104 % of control | [22] 106 % of control | [23] 104 % of control

CC(=O)OC1=C2C(C)(CCC(OC(C)=O)C2(C)C)C2=C(C1=O)C1(C)CCC(C(C)CCCC(C)C)C1(C)CC2=O (stereo not given)
inactive: [15] 87 % of control | dose: 200.0 mg/kg/injection, schedule: Q04DX003 (ip), vehicle: saline with Tween-80 87 % of control

O=S(=O)(/C=C/c1ccccc1)c1ccc2ccccc2c1
inactive: [9] 97 % of control | dose: 100.0 mg/kg/injection, schedule: Q01DX009 (ip), vehicle: acetone 92 % of control | [7] 102 % of control | [12] 93 % of control | dose: 200.0 mg/kg/injection, schedule: Q01DX009 (ip), vehicle: acetone 92 % of control | [8] 105 % of control | [14] 90 % of control | dose: 400.0 mg/kg/injection, schedule: Q01DX009 (ip), vehicle: acetone 94 % of control | dose: 400.0 mg/kg/injection, schedule: Q04DX003 (ip), vehicle: acetone 102 % of control

O=C(NCCBr)OCc1ccccc1
inactive: [2] 98 % of control | [11] 98 % of control | [13] 101 % of control

COc1cc(/C=c2\[nH]c(=O)/c(=C/c3cc(OC)c(OC)c(OC)c3)[nH]c2=O)cc(OC)c1OC
inactive: [24] 86 % of control | [18] 93 % of control | [19] 93 % of control | [25] 87 % of control | [20] 88 % of control

CC(C)c1ncc([N+](=O)[O-])n1C
inactive: [16] 97 % of control | [17] 95 % of control | [21] 103 % of control | [24] 102 % of control | [18] 97 % of control and 114 % of control | [22] 101 % of control | [19] 104 % of control | [23] 101 % of control | [25] 91 % of control | [20] 106 % of control

CCOC(Nc1ccc(Cl)c(Cl)c1)C(=O)c1ccccc1 (stereo not given)
inactive: [5] 105 % of control | [3] 105 % of control | [4] 96 % of control
